Results taken from US10265328B2, “C-19 steroids for specific therapeutic uses” (Procima GmbH, priority 2007, dated 2019).
“Also recorded” adds a separate entry of the source.

How the values were obtained:
[1] = biological target: T1, androgen receptor (AR) (Homo sapiens, UniProt P10275); experiment: binding affinity to the androgen receptor compared with DHT
T1 sequence (P10275 1-920): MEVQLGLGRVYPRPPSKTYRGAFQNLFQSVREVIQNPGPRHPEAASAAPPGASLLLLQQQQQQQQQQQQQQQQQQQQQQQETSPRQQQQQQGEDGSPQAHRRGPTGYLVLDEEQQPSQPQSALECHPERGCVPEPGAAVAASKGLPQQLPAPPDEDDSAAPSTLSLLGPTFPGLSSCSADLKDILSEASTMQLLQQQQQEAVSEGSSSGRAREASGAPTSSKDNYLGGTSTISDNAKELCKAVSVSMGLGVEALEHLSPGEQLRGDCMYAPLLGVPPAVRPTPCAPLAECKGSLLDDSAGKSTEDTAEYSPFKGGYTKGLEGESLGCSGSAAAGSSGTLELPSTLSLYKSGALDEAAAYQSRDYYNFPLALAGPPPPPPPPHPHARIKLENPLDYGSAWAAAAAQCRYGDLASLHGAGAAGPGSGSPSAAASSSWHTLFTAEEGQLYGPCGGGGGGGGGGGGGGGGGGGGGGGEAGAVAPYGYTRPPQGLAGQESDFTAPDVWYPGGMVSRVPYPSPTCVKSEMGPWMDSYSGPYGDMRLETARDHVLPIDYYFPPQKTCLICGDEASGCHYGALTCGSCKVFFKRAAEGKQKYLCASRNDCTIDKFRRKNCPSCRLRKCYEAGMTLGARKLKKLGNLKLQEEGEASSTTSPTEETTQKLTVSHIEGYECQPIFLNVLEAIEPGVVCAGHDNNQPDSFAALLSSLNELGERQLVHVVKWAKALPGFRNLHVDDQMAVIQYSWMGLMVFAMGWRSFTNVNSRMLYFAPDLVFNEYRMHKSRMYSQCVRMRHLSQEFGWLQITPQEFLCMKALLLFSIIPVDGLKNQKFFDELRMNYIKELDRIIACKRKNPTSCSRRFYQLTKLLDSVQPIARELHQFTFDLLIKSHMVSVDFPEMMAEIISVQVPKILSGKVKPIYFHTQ
Description: The compounds used according to the present invention preferably have a binding affinity to the androgen receptor (AR) higher than DHT; more preferably the binding affinity is high by having affinity specific to AR in a range of IC50≤500 nM, preferably IC50≤100 nM and more preferably IC50≤50 nM, wherein IC50 is defined as the concentration of the compound required to reduce specific binding of a reference compound, 5α-dihydrotestosterone (DHT), by 50%. The IC50-values can be determined by known methods using radioactively labelled DHT as reference compound, for example by a standard dextran-coated charcoal adsorption method as described by Raynaud et al., J. Steroid Biochem. 6, 615-622 (1975), using 1 nM reference concentrations of radiolabeled [^3H]-DHT, or by similar IC50 determination methods described in the literature. Because the concentration of AR in the target cell is very low, typically in the nanomolar range approximately, differences in binding constants to the order contemplated in the present invention are significant.

[2] = system: breast cancer cells; experiment: growth of breast cancer cells in culture; assay type: cell-based; conditions: certain breast cancer cells in culture
Description: A further promising concept is based on a comparative evaluation between DHT and the compounds of the present invention. […] This effect may readily hold also true for hormone independent cancer.

[3] = biological target: T2, aromatase (Homo sapiens, UniProt P11511); experiment: aromatization of the compound
T2 sequence (P11511 1-503): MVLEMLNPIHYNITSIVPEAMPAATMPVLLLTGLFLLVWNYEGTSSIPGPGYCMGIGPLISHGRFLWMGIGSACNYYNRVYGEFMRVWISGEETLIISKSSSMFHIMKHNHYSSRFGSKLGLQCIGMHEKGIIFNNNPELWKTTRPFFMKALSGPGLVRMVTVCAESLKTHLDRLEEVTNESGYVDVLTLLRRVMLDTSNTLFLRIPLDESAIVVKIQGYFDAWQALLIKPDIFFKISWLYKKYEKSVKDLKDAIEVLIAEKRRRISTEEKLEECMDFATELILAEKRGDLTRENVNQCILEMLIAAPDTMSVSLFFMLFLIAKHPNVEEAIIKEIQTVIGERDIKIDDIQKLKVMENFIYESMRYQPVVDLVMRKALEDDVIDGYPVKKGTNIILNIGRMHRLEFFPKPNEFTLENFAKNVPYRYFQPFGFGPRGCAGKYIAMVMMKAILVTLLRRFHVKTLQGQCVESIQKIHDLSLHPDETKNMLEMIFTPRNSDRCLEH

[4] = system: skin; experiment: topical application of a 4-OHT preparation to the skin over cellulite predilection areas; assay type: in vivo
Description: Not only in theory but also in practice the compounds of the present invention and in particular 4-OHT and its related analogous compounds are the ideal anabolic substances. […] This can be deduced from topical applications to the skin.
The border between the two layers is made up of collagen fibres. Strengthening this border by increasing its collagen content by stimulating the fibroblasts to produce more collagen leads to a marked improvement of the appearance of cellulite.
A topical formulation containing a compound according to the present invention such as 4-OHT or an analogous compound can increase the collagen content of the skin via stimulation of the fibroblasts. […] It is reasonable to assume that 4-OHT has solely anabolic effects. […] Apparently is 4-OHT unable to exert any androgenic effects such as hair growth or pimples.

[5] = system: 5α-reductase; experiment: 5α-reduction of the compound
[6] = system: variant of the human prostate cancer cell line LNCaP; conditions: cited from earlier work
[7] = system: prostate cancer; conditions: 5 mg/day for 7 years vs placebo, men over 55 years, PSA less than 3.0 ng/ml; cited from earlier work
[8] = topical treatment over predilection areas of cellulite, within four weeks

| SMILES | binding affinity to the AR relative to DHT [1] | growth of breast cancer cells in culture [2] | aromatization [3] | androgenic effect on the skin (hair growth, pimples) ([4]; after application to the skin) | concentration of collagen fibres in the skin ([4]; topical application to the skin) | topical formulation compared with 4-OHA ([4]; topical formulation, collagen content of the skin) | adipocytes entrapped in the mesh of collagen fibres [4, 8] | solidification of the skin [4, 8] | 5α-reduction [5] | proliferation of LNCaP variant [6] | reduction of prostate cancers in the treatment arm [7] [%] |
| --- | --- | --- | --- | --- | --- | --- | --- | --- | --- | --- | --- |
| C[C@]12CC[C@H]3[C@@H](CCC4=C(O)C(=O)CC[C@@]43C)[C@@H]1CC[C@@H]2O [4-OHT, 4,17β-dihydroxyandrost-4-en-3-one] | higher affinity to the AR than DHT | even more effective | escapes aromatization | no androgenic effect whatsoever could be observed | anabolically increases the concentration of collagen fibres; also recorded: drastic augmentation of collagen fibres | superior than 4-OHA | marked diminution and shrinkage of the adipocytes | considerable solidification of the skin | escapes aromatization or 5α-reduction | – | – |
| C[C@]12CCC(=O)C[C@@H]1CC[C@@H]1[C@@H]2CC[C@]2(C)[C@@H](O)CC[C@@H]12 [DHT, dihydrotestosterone, reference compound] | – | able to abolish the growth | – | – | – | – | – | – | – | inhibits the proliferation | – |
| CC(C)(C)NC(=O)[C@H]1CC[C@H]2[C@@H]3CC[C@H]4NC(=O)C=C[C@]4(C)[C@H]3CC[C@]12C [finasteride] | – | – | – | – | – | – | – | – | – | – | 25 |
